Test results as given in PMC6269433, “Biocatalytic production of adiponitrile and related aliphatic linear α,ω-dinitriles” (Nature Communications, 2018).

Key:
Format in all cases: cell-based
OxdA [1] = target: T1, OxdA (Pseudomonas chlororaphis, UniProt Q7WSJ4); assay: whole-cell dehydration to adiponitrile, GC; details: E. coli resting cells, 50 mM potassium phosphate pH 7.0, 30 °C, argon, with or without 20% DMSO; activity only per bio wet weight
T1 construct: recombinant in E. coli, resting whole cells; plasmid details only in supplement; ferrous heme enzyme
T1 sequence (Q7WSJ4 1-352): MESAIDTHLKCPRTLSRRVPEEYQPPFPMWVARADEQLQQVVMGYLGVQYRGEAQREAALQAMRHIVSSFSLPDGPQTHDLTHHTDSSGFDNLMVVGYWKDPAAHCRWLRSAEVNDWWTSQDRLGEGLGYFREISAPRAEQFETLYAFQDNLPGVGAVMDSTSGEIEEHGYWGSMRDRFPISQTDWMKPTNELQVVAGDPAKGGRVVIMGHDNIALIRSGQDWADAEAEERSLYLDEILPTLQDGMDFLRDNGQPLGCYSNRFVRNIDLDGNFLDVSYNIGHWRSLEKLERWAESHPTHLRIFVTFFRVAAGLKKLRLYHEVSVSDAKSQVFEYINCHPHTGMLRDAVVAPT

OxdB [2] = target: T2, OxdB (Bacillus sp. OxB-1, UniProt P82604); assay: whole-cell dehydration to adiponitrile, GC; details: E. coli resting cells, 50 mM potassium phosphate pH 7.0, 30 °C, argon, with or without 20% DMSO; activity only per bio wet weight
T2 construct: gene oxd; recombinant in E. coli, resting whole cells; plasmid details only in supplement; ferrous heme enzyme
T2 sequence (P82604 2-351): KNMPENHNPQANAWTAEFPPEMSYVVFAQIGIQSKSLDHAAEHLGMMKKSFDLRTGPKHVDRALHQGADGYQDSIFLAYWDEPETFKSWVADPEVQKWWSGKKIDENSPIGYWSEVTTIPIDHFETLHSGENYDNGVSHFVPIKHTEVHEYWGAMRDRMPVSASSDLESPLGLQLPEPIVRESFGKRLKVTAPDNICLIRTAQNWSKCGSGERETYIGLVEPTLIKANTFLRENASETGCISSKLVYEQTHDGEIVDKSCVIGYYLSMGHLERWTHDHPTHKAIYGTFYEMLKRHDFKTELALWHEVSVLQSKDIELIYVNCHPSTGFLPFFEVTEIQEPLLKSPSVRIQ

OxdA [3] = target: T1, OxdA; assay: whole-cell dehydration to the dinitrile, analytical scale; details: E. coli resting cells; substrate 3.0-75 mM range; activity only per bio wet weight
OxdB [4] = target: T2, OxdB; assay: as above; details: E. coli resting cells; substrate 3.0-75 mM range; activity only per bio wet weight

Structure (SMILES) | whole-cell dehydration to adiponitrile, GC (OxdA [1]) | whole-cell dehydration to adiponitrile, GC (OxdB [2]) | whole-cell dehydration to the dinitrile, analytical scale (OxdA [3]) | whole-cell dehydration to the dinitrile, analytical scale (OxdB [4])
ON=CCCCCC=NO [1d, adipaldehyde dioxime] | the C6-C10-dialdoximes (1d-h) were converted by both Oxds completely with excellent efficiency | the C6-C10-dialdoximes (1d-h) were converted by both Oxds completely with excellent efficiency | – | –
ON=CCCCCCCC=NO [1f, C8-dialdoxime] | – | – | the C6-C10-dialdoximes (1d-h) were converted by both Oxds completely with excellent efficiency | the C6-C10-dialdoximes (1d-h) were converted by both Oxds completely with excellent efficiency
